Source: article PMC9114170, “Investigation of the Role of Hydrophobic Amino Acids on the Structure-Activity Relationship in the Antimicrobial Venom Peptide Ponericin L1” (The Journal of membrane biology, 2021)
Ends that are not written are not given here.

What was measured:
[1] = test system: E. coli D31 outer membrane; test: E. coli outer membrane permeabilization (nitrocefin / β-lactamase); format: cell-based, Escherichia coli; details: E. coli D31, nitrocefin hydrolysis, absorbance 486 nm, up to 90 minutes; peptide serially diluted from 15 μM; average of three replicates
Protocol: A single colony of E.coli D31 was taken from an LB agar plate and inoculated into fresh LB broth with 100 μg/mL ampicillin (LB-Amp), then place in a shaking incubator at 37 C (225 rpm) for ~ 18 hours. After the incubation period 100 μL was taken from the culture and diluted with 25 mL of fresh LB-Amp. The dilution was further incubated in the same conditions until an OD600 of 0.2 to 0.4 was obtained. Once the specified OD600 was reached the culture was then centrifuged at 2500 rpm for 15 minutes in a tabletop clinical centrifuge. The supernatant was discarded and then an equal amount of PBS (100 mM NaH2PO4, 200 mM NaCl, pH7) was used to resuspend the pellet.
Experimental samples were prepared in a 96-well plate in the order as follows: 10 μL of the six peptide variants that were serially diluted starting a concentration of 15 μM with the exception of the last row (used as a negative control 10 μL of 0.01% acetic acid). 80 μL of the resuspended bacteria culture, and 10 μL of 50 μg/mL nitrocefin in PBS. The absorbance was recorded at 486 nm in 5-minute intervals for a total run time of 90 minutes immediately following the addition of nitrocefin. The antimicrobial agent polymyxin B was used as a positive control. The values presented are the average of three replicates.
As the mechanism of action of the L1 venom peptide is likely a membrane disruptive mechanism, the effect of the hydrophobic substitutions on membrane permeabilization was investigated using E.coli and ovine red blood cells (RBCs). The permeabilization of the E. coli outer membrane was assayed using an enzyme-substrate pair in which the enzyme (β-lactamase) is located in the periplasmic space while the substrate (the chromogenic nitrocefin) is added to the exterior of cells. […] Similarly, the permeabilization of the E. coli inner membrane was assessed using a cytoplasmic enzyme, β-galactosidase, and a chromogenic substrate, ONPG. […]

[2] = test system: E. coli D31 inner membrane; test: E. coli inner membrane permeabilization (ONPG / β-galactosidase); format: cell-based, Escherichia coli; details: E. coli D31, ONPG hydrolysis, absorbance 420 nm, up to 90 minutes; average of three replicates
Protocol: A single colony of E.coli D31 was inoculated into LB broth and placed in a shaking incubator and set to 225 rpm at 37 C for ~ 18 hours. A 1:250 dilution was made using the overnight culture into fresh LB broth. To induce the expression the expression of β-galactosidase, a final concentration of 100mM of IPTG was introduced. This dilution plus the IPTG was placed back into the shaking incubator for about 2 hours until an OD600 of 0.2-0.4 was achieved.
A 96 well plate was prepared with the following solutions in order: 10 μL of each peptide variant 2-fold serially diluted down the plate with the exception of the final row (used as a negative control 10 μL of 0.01% acetic acid), 56 μL Z-buffer (60mM Na2HPO4, 40mM NaH2PO4, 10mM KCl, 1mM MgSO4, 50mM β-mercaptoethanol pH 7), 19 μL of the E. coli culture, and 15 μL of 4 mg/ml ONPG that was prepared in Z-buffer added immediately before the assay began. Absorbance measurements wer taken at 420 nm every 5 minutes for a total run time of 90 minutes. […]
As the mechanism of action of the L1 venom peptide is likely a membrane disruptive mechanism, the effect of the hydrophobic substitutions on membrane permeabilization was investigated using E.coli and ovine red blood cells (RBCs). […] Similarly, the permeabilization of the E. coli inner membrane was assessed using a cytoplasmic enzyme, β-galactosidase, and a chromogenic substrate, ONPG. […]

[3] = test system: Gram-positive and Gram-negative strains; test: Antimicrobial activity over the MIC panel; format: cell-based; details: highest concentration tested 15μM
Protocol: Six different strains of bacteria were streaked on LB-Miller agar plates from a frozen glycerol stock derived from the original samples shipped from CGSC (Coli Genetic Stock Center, Yale University) or ATCC (American Type Culture Collection) (Escherichia coli D31 CGSC 5165 ([Burman, Nordstrom & Boman, 1968]), Staphylococcus aureus ATCC 35556. Pseudomonas aeruginosa PA-01 ATCC 47085, Acinetobacter baumannii ATCC 19606). For each of the strains a liquid overnight culture was prepared using a single colony into fresh LB broth and placed in a shaking incubator for ~ 18 hours at 37 C at 225 rpm. After the incubation period, a 1:200 dilution was made in fresh LB broth and then used for experimentation. Minimal Inhibitory Concentration (MIC) determinations were performed using mid-log phase bacteria diluted to 5 x 10^5 CFU/mL. Next, 90 μL of this diluted culture was then pipetted into a sterile 96-well plate that contains serially diluted aliquots of the peptide variants to consist of a total volume of 100 μL. This plate was then incubated for 18 hours at 37 C. Bacterial growth was determined by taking an OD600 measurement using a Spectramax M5 multimode plate reader post incubation. Minimal Bactericidal Concentration (MBC) was performed by taking 1 μL of the culture from the MIC plate and then pipetting it on to a fresh LB agar plate. After plating this culture, the plate was then incubated overnight at 37 C. MBC was determined by the growth or the lack of growth from each well on the agar plate.
The ability of L1 and the hydrophobic variants to act as antimicrobials was investigated using the Minimal Inhibitory Concentration (MIC) and Minimal Bactericidal Concentration (MBC) assays as previously described ([Wiegand, Hilpert & Hancock, 2008]). The MIC is determined as the lowest concentration of peptide required to inhibit bacterial growth in solution, while the MBC is the lowest concentration required to act in a bactericidal mechanism (as opposed to bacteriostatic) and is determined by plating MIC cultures on antimicrobial-free media. Peptides were screened against E. coli, S. aureus, A. baumannii, P. aeruginosa, B. subtilis, and K. pneumoniae.

Row | Sequence | Outer membrane permeabilization [1] | Inner membrane permeabilization [2] | Antimicrobial activity (summary of MIC results) [3]
1 | LLKELWTKMKGAGKALLGKLKGLL [L1L] | increased permeability of the outer membrane | exhibited any inner membrane permeabilizing activity | broad spectrum activity
2 | FFKEFWTKMKGAGKAFFGKFKGFF [L1F] | increased permeability of the outer membrane | exhibited any inner membrane permeabilizing activity | broad spectrum activity
